In patent publication US11780823B2, “Indazole-3-carboxamides and their use as Wnt/β-catenin signaling pathway inhibitors” (BioSplice Therapeutics, Inc., priority 2011, dated 2023):

System: Wnt activity (wnt-responsive SP5 promoter luciferase reporter in SW480 cells)
Assay: Wnt reporter screening assay: SP5 promoter-driven firefly luciferase in SW480 cells
Format: cell-based
Conditions: Homo sapiens; SW480 colon cancer cells with SP5 promoter luciferase reporter; half-log dilutions, ten micromolar top concentration; read 24-40 h after compound addition; normalized to DMSO; read-out: Wnt inhibition
How it was run: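 Described as a possible protocol: SW480 cells (APC-mutant colon cancer) stably carrying an SP5 promoter (eight TCF/LEF sites) firefly luciferase reporter, ~10,000 per well. BrightGlo luminescence normalized to DMSO wells for IC50.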

Compound	IC50 [nM]
COc1ccc(NC(=O)c2n[nH]c3ccc(-c4cncc(CN5CCCCC5)c4)cc23)cn1 [Compound 175, N-(6-Methoxypyridin-3-yl)-5-(5-(piperidin-1-ylmethyl)pyridin-3-yl)-1H-indazole-3-carboxamide]	25
CN1CCC(NC(=O)c2n[nH]c3ccc(-c4cncc(CN5CCCCC5)c4)cc23)CC1 [Compound 87, N-(1-Methylpiperidin-4-yl)-5-(5-(piperidin-1-ylmethyl)pyridin-3-yl)-1H-indazole-3-carboxamide]	2440
COc1ccc(-c2ccc3[nH]nc(C(=O)Nc4cccnc4)c3c2)cn1 [Compound 54, 5-(6-Methoxypyridin-3-yl)-N-(pyridin-3-yl)-1H-indazole-3-carboxamide]	158
O=C(Nc1ccc(Oc2ccc(F)cc2)nc1)c1n[nH]c2ccc(-c3cccnc3)cc12 [Compound 20, N-(6-(4-Fluorophenoxy)pyridin-3-yl)-5-(pyridin-3-yl)-1H-indazole-3-carboxamide]	118
